{
  "source": "patent US8895733B2",
  "about": "(Novartis AG, priority 2010, dated 2014)",
  "data": [
    {"target": "T1, Nav 1.7 (Homo sapiens, UniProt Q15858)", "T1 construct": "expressed in transfected cells", "T1 sequence (Q15858 whole entry)": "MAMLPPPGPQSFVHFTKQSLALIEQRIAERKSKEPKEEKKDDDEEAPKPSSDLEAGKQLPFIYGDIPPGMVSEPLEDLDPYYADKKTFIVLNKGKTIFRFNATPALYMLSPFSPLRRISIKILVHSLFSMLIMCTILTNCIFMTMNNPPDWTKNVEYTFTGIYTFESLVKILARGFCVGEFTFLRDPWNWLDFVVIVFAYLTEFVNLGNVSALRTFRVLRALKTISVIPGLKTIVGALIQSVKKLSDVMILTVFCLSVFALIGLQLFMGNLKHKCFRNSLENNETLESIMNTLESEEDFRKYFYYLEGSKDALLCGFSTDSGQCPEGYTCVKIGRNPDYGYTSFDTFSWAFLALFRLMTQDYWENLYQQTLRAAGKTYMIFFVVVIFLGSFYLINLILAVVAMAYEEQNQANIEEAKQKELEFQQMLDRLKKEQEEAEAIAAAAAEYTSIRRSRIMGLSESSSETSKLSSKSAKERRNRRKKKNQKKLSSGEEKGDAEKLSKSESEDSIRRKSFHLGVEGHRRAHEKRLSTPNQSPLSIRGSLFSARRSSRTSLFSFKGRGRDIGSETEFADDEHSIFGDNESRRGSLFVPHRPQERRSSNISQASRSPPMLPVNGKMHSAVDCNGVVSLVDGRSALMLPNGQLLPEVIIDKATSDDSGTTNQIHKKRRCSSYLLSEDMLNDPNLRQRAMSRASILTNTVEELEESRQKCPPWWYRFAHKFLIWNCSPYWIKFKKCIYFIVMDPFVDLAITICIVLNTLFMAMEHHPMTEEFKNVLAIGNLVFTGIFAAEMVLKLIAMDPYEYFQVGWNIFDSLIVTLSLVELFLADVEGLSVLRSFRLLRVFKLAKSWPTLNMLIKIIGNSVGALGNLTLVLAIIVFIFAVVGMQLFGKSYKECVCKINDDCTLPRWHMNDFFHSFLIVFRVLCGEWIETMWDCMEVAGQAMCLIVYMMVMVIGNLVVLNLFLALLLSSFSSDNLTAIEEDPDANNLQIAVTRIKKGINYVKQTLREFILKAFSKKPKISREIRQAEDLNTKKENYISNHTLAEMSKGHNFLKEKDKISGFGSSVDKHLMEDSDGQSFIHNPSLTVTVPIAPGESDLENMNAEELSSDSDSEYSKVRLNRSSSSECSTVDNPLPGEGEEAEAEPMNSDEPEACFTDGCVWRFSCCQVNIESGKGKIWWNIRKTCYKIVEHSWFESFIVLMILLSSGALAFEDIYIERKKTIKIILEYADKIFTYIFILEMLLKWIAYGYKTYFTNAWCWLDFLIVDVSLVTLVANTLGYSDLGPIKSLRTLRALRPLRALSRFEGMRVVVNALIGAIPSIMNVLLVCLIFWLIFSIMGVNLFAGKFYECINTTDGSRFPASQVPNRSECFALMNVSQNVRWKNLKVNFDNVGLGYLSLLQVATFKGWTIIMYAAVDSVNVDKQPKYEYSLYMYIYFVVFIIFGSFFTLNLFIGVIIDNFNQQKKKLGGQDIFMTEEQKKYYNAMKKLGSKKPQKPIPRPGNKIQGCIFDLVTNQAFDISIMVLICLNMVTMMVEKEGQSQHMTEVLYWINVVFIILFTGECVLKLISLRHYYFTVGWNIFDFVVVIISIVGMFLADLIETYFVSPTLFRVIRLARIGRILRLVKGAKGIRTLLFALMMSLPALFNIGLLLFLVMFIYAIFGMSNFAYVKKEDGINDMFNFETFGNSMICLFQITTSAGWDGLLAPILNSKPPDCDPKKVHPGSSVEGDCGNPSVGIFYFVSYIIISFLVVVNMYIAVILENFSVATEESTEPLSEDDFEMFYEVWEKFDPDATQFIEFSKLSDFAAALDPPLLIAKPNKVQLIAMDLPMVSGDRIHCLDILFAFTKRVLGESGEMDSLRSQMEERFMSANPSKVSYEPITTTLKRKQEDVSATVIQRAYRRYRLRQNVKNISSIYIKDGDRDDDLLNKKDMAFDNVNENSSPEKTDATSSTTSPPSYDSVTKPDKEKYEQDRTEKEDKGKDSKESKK", "test": "Whole-cell voltage clamp electrophysiology, automated patch clamp (marker c in Table of Examples)", "format": "cell-based", "conditions": "marker c = Automated patch clamp data; read-out: Nav 1.7 activity", "summary_of_the_method": "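A voltage protocol weighted toward inactivated-state block was used to test compounds on stably expressing cells, with pulses from −65 mV holding to −10 mV test and −100 mV. Currents came from whole-cell automated patch-clamp recordings, either IonWorks Quattro or other automated instruments, usually in perforated-patch mode.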", "units": {"IC50": "nM"}, "values": [
      {"smiles": "COC1CCN(c2nc(-c3nc(N)nc(Nc4cccc(F)c4)n3)no2)CC1", "note": "[Example 237, 2-N-(3-fluorophenyl)-6-[5-(4-methoxypiperidin-1-yl)-1,2,4-oxadiazol-3-yl]-1,3,5-triazine-2,4-diamine]", "IC50": 3990},
      {"smiles": "COc1cc(-c2nc(-c3nc(N)nc(Nc4ccccc4)n3)no2)ccn1", "note": "[Example 239, 6-[5-(2-methoxypyridin-4-yl)-1,2,4-oxadiazol-3-yl]-2-N-phenyl-1,3,5-triazine-2,4-diamine]", "IC50": 5870},
      {"smiles": "Nc1nc(Nc2cccc(F)c2)nc(-c2noc(-c3ncccc3F)n2)n1", "note": "[Example 240, 2-N-(3-fluorophenyl)-6-[5-(3-fluoropyridin-2-yl)-1,2,4-oxadiazol-3-yl]-1,3,5-triazine-2,4-diamine]", "IC50": 172},
      {"smiles": "Nc1nc(Nc2ccc(F)cc2)nc(-c2noc(-c3nccs3)n2)n1", "note": "[Example 241]", "IC50": 89},
      {"smiles": "Nc1nc(Nc2ccccc2)nc(-c2noc(NC3CCCCC3)n2)n1", "note": "[Example 242, 6-[5-(cyclohexylamino)-1,2,4-oxadiazol-3-yl]-2-N-phenyl-1,3,5-triazine-2,4-diamine]", "IC50": 5370},
      {"smiles": "CC1CCN(c2nc(-c3nc(N)nc(Nc4ccccc4)n3)no2)CC1", "note": "[Example 243, 6-[5-(4-methylpiperidin-1-yl)-1,2,4-oxadiazol-3-yl]-2-N-phenyl-1,3,5-triazine-2,4-diamine]", "IC50": 7950},
      {"smiles": "Nc1nc(Nc2ccccc2)nc(-c2noc(C(=O)NC3CCc4ccccc43)n2)n1", "note": "(stereo not drawn) [Example 244, 3-[4-amino-6-(phenylamino)-1,3,5-triazin-2-yl]-N-(2,3-dihydro-1H-inden-1-yl)-1,2,4-oxadiazole-5-carboxamide]", "IC50": 2970},
      {"smiles": "CC1CCN(c2nc(-c3nc(N)nc(Nc4cccc(F)c4)n3)no2)CC1", "note": "[Example 245, 2-N-(3-fluorophenyl)-6-[5-(4-methylpiperidin-1-yl)-1,2,4-oxadiazol-3-yl]-1,3,5-triazine-2,4-diamine]", "IC50": 3090},
      {"smiles": "Nc1nc(Nc2ccccc2)nc(-c2noc(N3CCC4(CC3)COC4)n2)n1", "note": "[Example 246, 6-(5-{2-oxa-7-azaspiro[3.5]nonan-7-yl}-1,2,4-oxadiazol-3-yl)-2-N-phenyl-1,3,5-triazine-2,4-diamine]", "IC50": 9360},
      {"smiles": "COc1ccccc1-c1nc(-c2nc(N)nc(Nc3ccccc3)n2)no1", "note": "[Example 247, 6-[5-(2-methoxyphenyl)-1,2,4-oxadiazol-3-yl]-2-N-phenyl-1,3,5-triazine-2,4-diamine]", "IC50": 40},
      {"smiles": "COc1ccccc1-c1nc(-c2nc(N)nc(Nc3cccc(F)c3)n2)no1", "note": "[Example 248, 2-N-(3-fluorophenyl)-6-[5-(2-methoxyphenyl)-1,2,4-oxadiazol-3-yl]-1,3,5-triazine-2,4-diamine]", "IC50": 376},
      {"smiles": "Nc1ccc(-c2nc(-c3nc(N)nc(Nc4cccc(F)c4)n3)no2)nc1", "note": "[Example 249, 6-[5-(5-aminopyridin-2-yl)-1,2,4-oxadiazol-3-yl]-2-N-(3-fluorophenyl)-1,3,5-triazine-2,4-diamine]", "IC50": 9030},
      {"smiles": "Nc1nc(Nc2cccc(F)c2)nc(-c2noc(C(=O)NC3COC3)n2)n1", "note": "[Example 250, 3-{4-amino-6-[(3-fluorophenyl)amino]-1,3,5-triazin-2-yl}-N-(oxetan-3-yl)-1,2,4-oxadiazole-5-carboxamide]", "IC50": 9850},
      {"smiles": "CN(c1ccccc1)c1nc(N)nc(-c2noc(-c3n[nH]cc3Br)n2)n1", "note": "[Example 251, 6-[5-(4-bromo-1H-pyrazol-3-yl)-1,2,4-oxadiazol-3-yl]-2-N-methyl-2-N-phenyl-1,3,5-triazine-2,4-diamine]", "IC50": 2530},
      {"smiles": "CN(c1ccccc1)c1nc(N)nc(-c2noc(-c3ccn(C)n3)n2)n1", "note": "[Example 252, 2-N-methyl-6-[5-(1-methyl-1H-pyrazol-3-yl)-1,2,4-oxadiazol-3-yl]-2-N-phenyl-1,3,5-triazine-2,4-diamine]", "IC50": 2380},
      {"smiles": "CN(c1ccccc1)c1nc(N)nc(-c2noc(-c3ccnn3C)n2)n1", "note": "[Example 253, 2-N-methyl-6-[5-(1-methyl-1H-pyrazol-5-yl)-1,2,4-oxadiazol-3-yl]-2-N-phenyl-1,3,5-triazine-2,4-diamine]", "IC50": 4560},
      {"smiles": "CN(c1ccccc1)c1nc(N)nc(-c2noc(-c3n[nH]cc3Cl)n2)n1", "note": "[Example 254, 6-[5-(4-chloro-1H-pyrazol-3-yl)-1,2,4-oxadiazol-3-yl]-2-N-methyl-2-N-phenyl-1,3,5-triazine-2,4-diamine]", "IC50": 548},
      {"smiles": "CN(c1ccccc1)c1nc(N)nc(-c2noc(-c3cc(C(F)(F)F)[nH]n3)n2)n1", "note": "[Example 255, 2-N-methyl-2-N-phenyl-6-{5-[5-(trifluoromethyl)-1H-pyrazol-3-yl]-1,2,4-oxadiazol-3-yl}-1,3,5-triazine-2,4-diamine]", "IC50": 6450},
      {"smiles": "CN(c1ccccc1)c1nc(N)nc(-c2noc(-c3ccnn3CC(F)(F)F)n2)n1", "note": "[Example 257, 2-N-methyl-2-N-phenyl-6-{5-[1 - (2,2,2-trifluoroethyl)-1H-pyrazol-5-yl]-1,2,4-oxadiazol-3-yl}-1,3,5-triazine-2,4-diamine]", "IC50": 3250},
      {"smiles": "COc1ccc(NC(=O)c2nc(-c3nc(N)nc(N(C)c4ccccc4)n3)no2)cn1", "note": "[Example 258, 3-{4-Amino-6-[methyl(phenyl)amino]-1,3,5-triazin-2-yl}-N-(6-methoxypyridin-3-yl)-1,2,4-oxadiazole-5-carboxamide]", "IC50": 1850},
      {"smiles": "CN(c1ccccc1)c1nc(N)nc(-c2noc(C(=O)NCc3ccc(OCC(F)(F)F)nc3)n2)n1", "note": "[Example 259, 3-{4-amino-6-[methyl(phenyl)amino]-1,3,5-triazin-2-yl}-N-{[6-(2,2,2-trifluoroethoxy)pyridin-3-yl]methyl}-1,2,4-oxadiazole-5-carboxamide]", "IC50": 422},
      {"smiles": "COc1ccc(CNC(=O)c2nc(-c3nc(N)nc(N(C)c4ccccc4)n3)no2)cn1", "note": "[Example 260, 3-{4-amino-6-[methyl(phenyl)amino]-1,3,5-triazin-2-yl}-N-[(6-methoxypyridin-3-yl)methyl]-1,2,4-oxadiazole-5-carboxamide]", "IC50": 1200},
      {"smiles": "CN(c1ccccc1)c1nc(N)nc(-c2noc(C(=O)Nc3ccc(C(F)(F)F)nc3)n2)n1", "note": "[Example 263, 3-{4-amino-6-[methyl(phenyl)amino]-1,3,5-triazin-2-yl}-N-[6-(trifluoromethyl)pyridin-3-yl]-1,2,4-oxadiazole-5-carboxamide]", "IC50": 6010},
      {"smiles": "Nc1nc(Nc2cccc(Cl)c2F)nc(-c2noc(-c3ccccn3)n2)n1", "note": "[Example 264, 2-N-(3-Chloro-2-fluorophenyl)-6-[5-(pyridin-2-yl)-1,2,4-oxadiazol-3-yl]-1,3,5-triazine-2,4-diamine]", "IC50": 774},
      {"smiles": "Nc1nc(Nc2cccc(Cl)c2)nc(-c2noc(-c3ccccn3)n2)n1", "note": "[Example 265, 2-N-(3-chlorophenyl)-6-[5-(pyridin-2-yl)-1,2,4-oxadiazol-3-yl]-1,3,5-triazine-2,4-diamine]", "IC50": 386},
      {"smiles": "CN(c1ccccc1)c1nc(N)nc(-c2noc(C3CCCCC3)n2)n1", "note": "[Example 266, 6-(5-cyclohexyl-1,2,4-oxadiazol-3-yl)-2-N-methyl-2-N-phenyl-1,3,5-triazine-2,4-diamine]", "IC50": 4370},
      {"smiles": "CN(c1ccccc1)c1nc(N)nc(-c2noc(-c3ccc(C(F)(F)F)nc3)n2)n1", "note": "[Example 267, 2-N-methyl-2-N-phenyl-6-{5-[6-(trifluoromethyl)pyridin-3-yl]-1,2,4-oxadiazol-3-yl}-1,3,5-triazine-2,4-diamine]", "IC50": "> 8260"},
      {"smiles": "Cc1ncccc1-c1nc(-c2nc(N)nc(N(C)c3ccccc3)n2)no1", "note": "[Example 268, 2-N-methyl-6-[5-(2-methylpyridin-3-yl)-1,2,4-oxadiazol-3-yl]-2-N-phenyl-1,3,5-triazine-2,4-diamine]", "IC50": 1360},
      {"smiles": "CN(c1ccccc1)c1nc(N)nc(-c2noc(-c3cccc(N4CCOCC4)n3)n2)n1", "note": "[Example 270, 2-N-methyl-6-{5-[6-(morpholin-4-yl)pyridin-2-yl]-1,2,4-oxadiazol-3-yl}-2-N-phenyl-1,3,5-triazine-2,4-diamine]", "IC50": 3650},
      {"smiles": "CN(c1cccc(Cl)c1)c1nc(N)nc(-c2noc(-c3ncccc3F)n2)n1", "note": "[Example 272, 2-N-(3-chlorophenyl)-6-[5-(3-fluoropyridin-2-yl)-1,2,4-oxadiazol-3-yl]-2-N-methyl-1,3,5-triazine-2,4-diamine]", "IC50": 478},
      {"smiles": "CN(c1ccccc1)c1nc(N)nc(-c2noc(-c3ncccc3Cl)n2)n1", "note": "[Example 273, 6-[5-(3-chloropyridin-2-yl)-1,2,4-oxadiazol-3-yl]-2-N-methyl-2-N-phenyl-1,3,5-triazine-2,4-diamine]", "IC50": 253},
      {"smiles": "CN(c1ccccc1)c1nc(N)nc(-c2noc(N3CCC(NC(=O)C(F)(F)F)CC3)n2)n1", "note": "[Example 274, N-[1-(3-{4-amino-6-[methyl(phenyl)amino]-1,3,5-triazin-2-yl}-1,2,4-oxadiazol-5-yl)piperidin-4-yl]-2,2,2-trifluoroacetamide]", "IC50": 8580},
      {"smiles": "CN(c1ccccc1)c1nc(N)nc(-c2noc(-c3cccnc3Cl)n2)n1", "note": "[Example 275, 6-[5-(2-chloropyridin-3-yl)-1,2,4-oxadiazol-3-yl]-2-N-methyl-2-N-phenyl-1,3,5-triazine-2,4-diamine]", "IC50": 3490},
      {"smiles": "CN(c1ccccc1)c1nc(N)nc(-c2noc(C(=O)N3CCCC3)n2)n1", "note": "[Example 276, 2-N-methyl-2-N-phenyl-6-{5-[(pyrrolidin-1-yl)carbonyl]-1,2,4-oxadiazol-3-yl}-1,3,5-triazine-2,4-diamine]", "IC50": 1680},
      {"smiles": "CN(c1ccccc1)c1nc(N)nc(-c2noc(C(=O)N3CCCCC3)n2)n1", "note": "[Example 277, 2-N-methyl-2-N-phenyl-6-{5-[(piperidin-1-yl)carbonyl]-1,2,4-oxadiazol-3-yl}-1,3,5-triazine-2,4-diamine]", "IC50": 3260},
      {"smiles": "COC(=O)c1ccc(-c2nc(-c3nc(N)nc(N(C)c4ccccc4)n3)no2)cn1", "note": "[Example 279, methyl 5-(3-{4-amino-6-[methyl(phenyl)amino]-1,3,5-triazin-2-yl}-1,2,4-oxadiazol-5-yl)pyridine-2-carboxylate]", "IC50": 444}
    ]}
  ]
}
